Like-named read-outs stand apart in the source and are kept apart here.
Columns and labels:
[1] = system: ENCDC isolated from E15 fetal mouse gut; assay: Development/survival of enteric neurons from cultured ENCDC isolated from E15 fetal mouse gut; format: cell-based; conditions: ENCDC culture; for development/survival of early-born (calretinin) neurons / development/survival of late-born enteric neurons that express TH or GABA / effect on development/survival of late-born neurons compared with total neurons / development/survival of total enteric neurons: serum-free media; for development/survival of early-born (calretinin) neurons / development/survival of late-born enteric neurons that express TH or GABA / effect on development/survival of late-born neurons compared with total neurons: 2.5 μM; for development/survival of total enteric neurons: prucalopride 2.5 μM, BIMU-8 2.5 μM
Method: Immunocytochemistry was performed as follows: HuC/D, TH, g-aminobutyric acid (GABA), nNOS, and CGRP were located immunocytochemically to determine the abundance of total, dopaminergic, GABAergic, nitrergic and CGRP-expressing enteric neurons in G56A mice and their respective WT littermates. SERT immunoreactivity was also investigated to determine whether or not it is coincident with TH immunoreactivity in the myenteric plexus. In each experimental group, tissue samples were collected from ilea of 6-8 animals, fixed with 4% formaldehyde for 1.5 hours and washed in PBS. Whole mount preparations of longitudinal muscle with attached myenteric plexus (LMMP) were prepared by dissection. Cultured cells were fixed with 4% formaldehyde for 30 minutes and washed in PBS. Preparations were blocked with 10% normal horse serum for 30 minutes at room temp and then incubated for 48 or 72 hours at 4° C. with primary antibodies. Bound primary antibodies were visualized, respectively, with streptavidin-Alexa 594 for mouse monoclonal antibodies, and donkey antibodies to goat, rabbit, or sheep IgG coupled to Alexa 350, 488 or 594 (diluted 1:200; Invitrogen). Preparations were washed with PBS, mounted in buffered glycerol, and examined with a Leica CTR 6000 microscope. Images were obtained with a cooled CCD camera and analyzed with computer assistance (Volocity 5.4 imaging software; Improvision, Waltham, Mass.). To count the numbers of HuC/D-immunoreactive cells in each LMMP preparation, a motorized stage under computer control was used to scan and collect images with a 40× objective covering the entirety of a 10 mm^2 area. To count the numbers of CGRP-, nNOS- and TH-immunoreactive cells a similar procedure was used, except that images were collected with a 20× objective and that an area of 30 mm^2 was scanned. The higher magnification was needed for HuC/D-immunoreactive cells to be certain that overlapping cells could be distinguished. The lower magnification was advantageous for TH-immunoreactive cells, which are widely separated and relatively rare, because the cells were scattered and large numbers could be imaged for statistical reliability. The collected images were processed using a computer running Volocity 5.6 software to determine the numbers of immunoreactive cells of each type, which were presented as cells/mm^2. TH-immunoreactive terminal axons in the myenteric plexus of ileum of four G56A SERT and four WT mice were examined to study the effects of G56A SERT on the density of extrinsic sympathetic terminals. Sympathetic axons are far more abundant that dopaminergic axons in the myenteric plexus. Their large varicosities and coarse structure also distinguish sympathetic from dopaminergic axons. Dopaminergic neurons, moreover, are primarily located in the submucosal plexus. In each preparation, 3 images were obtained with a 40× objective. The total area occupied by TH-immunoreactive terminals in each image was obtained with computer assistance (Volocity 5.6 software; Improvision, Perkin Elmer).
The hypothesis was tested that 5-HT-promoted enteric neurogenesis is 5-HT4-mediated. The responsible receptor was also sought. ENCDC were isolated from E15 fetal mouse gut with antibodies to p75NTR and cultured in serum-free media. […] The 5-HT4 antagonist, GR113808 (1.0 μM), prevented 5-HT, prucalopride, or BIMU-8 from enhancing development/survival of total dopaminergic or GABAergic neurons.

[2] = system: G56A mice; assay: GI motility in mature offspring after prenatal and nursing prucalopride treatment, G56A mice; format: in vivo, mouse; conditions: prucalopride oral in dams' drinking water (24 mg in 350 ml) from early pregnancy until weaning, then stopped
Method: (§1) Carmine red, which cannot be absorbed from the lumen of the gut, was used to study total GI transit time (Kimball et al., 2005). A solution of carmine red (300 μl; 6%; Sigma Aldrich, St. Louis, Mo.) suspended in 0.5% methylcellulose (Sigma Aldrich, St. Louis, Mo.) was administered by gavage through a 21-gauge round-tip feeding needle. The time at which gavage took place was recorded as TO. After gavage, fecal pellets were monitored at 10 minutes intervals for the presence of carmine red. Total GI transit time was considered as the interval between TO and the time of first observance of carmine red in stool.
(§2) Colonic motility was studied as previously described (Li et al., 2006). Briefly, the animals were anesthetized with isoflurane (Baxter Pharmaceutical Products Inc, Deerfield, Ill.). A glass bead (3 mm in diameter) was pushed into the colon to a distance of 2 cm from the anal verge. The time required for expulsion of the glass bead was measured and taken as an estimate of colonic motility.
(§3) The dose of prucalopride was 24 mg into 350 ml of water and the mice were assumed to drink about 5 ml/day. After birth, the prucalopride was continued in the drinking water, and was thus delivered to the newborn and suckling pups via breast milk. When the pups were weaned, the prucalopride was stopped; therefore, the exogenous 5-HT4 stimulation was allowed to cease. […]

[3] = system: WT mice; assay: GI motility in mature offspring after prenatal and nursing prucalopride treatment, WT mice; format: in vivo, mouse; conditions: prucalopride treatment of fetal and nursing mice
Method: as §1, §2, §3

[4] = system: wild-type adult mice and mice lacking 5-HT4 receptors; conditions: cited from earlier work
[5] = system: G56A mice; assay: Small intestinal transit (rhodamine B dextran geometric center) with exogenous 5-HT; format: in vivo, mouse; conditions: G56A mice compared to WT mice (FIG. 2D)
Method: For analysis of gastric emptying and small intestinal transit, mice were fasted overnight in cages that lacked bedding. Water was withdrawn 3 hours before the experiment. A solution containing rhodamine B dextran (100 μl; 10 mg/ml in 2% methylcellulose, Invitrogen, Carlsbad, Calif.) was administered to each mouse by gavage through a 21-gauge round-tip feeding needle. Animals were euthanized 15 minutes after gavage; the stomach, small intestine, cecum, and colon were collected in 0.9% NaCl. The small intestine was divided into 10 segments of equal length and the colon (used to obtain total recovered rhodamine B fluorescence) was divided in half. […] Rhodamine fluorescence was measured in 1 ml aliquots of the supernatant (VersaFluor™ Fluorometer; BIO-RAD Laboratories, Hercules, Calif.). The proportion of the Rhodamine B dextran that emptied from the stomach was calculated as [(total recovered fluorescence−fluorescence remaining in the stomach)/(total recovered fluorescence)]×100.
Small intestinal transit was estimated by the position of the geometric center of the Rhodamine B dextran in the small bowel (Miller et al., 1981). For each segment of the small intestine (1-10), the geometric center (a) was calculated as: a=(fluorescence in each segment×number of the segment)/(total fluorescence recovered in the small intestine). […]

CC(C)n1c(=O)n(C(=O)NC2CC3CCC(C2)N3C)c2ccccc21 (stereo not drawn) [BIMU-8]
development/survival of early-born (calretinin) neurons [1]: Neither prucalopride nor BIMU-8 enhanced
development/survival of late-born enteric neurons that express TH or GABA [1]: increased development/survival
effect on development/survival of late-born neurons compared with total neurons [1]: significantly greater than on total
development/survival of total enteric neurons [1]: enhanced the development/survival of total enteric neurons

Cn1cc(C(=O)OCC2CCN(CCNS(C)(=O)=O)CC2)c2ccccc21 [GR113808]
antagonism of the enhancement by 5-HT, prucalopride or BIMU-8 of development/survival of total dopaminergic or GABAergic neurons ([1]; GR113808 1.0 μM): prevented

COCCCN1CCC(NC(=O)c2cc(Cl)c(N)c3c2OCC3)CC1 [prucalopride]
development/survival of early-born (calretinin) neurons [1]: Neither prucalopride nor BIMU-8 enhanced
development/survival of late-born enteric neurons that express TH or GABA [1]: increased development/survival
effect on development/survival of late-born neurons compared with total neurons [1]: significantly greater than on total
development/survival of total enteric neurons [1]: enhanced the development/survival of total enteric neurons
GI motility in offspring at ages 2-3 months [2]: restored to normal
GI motility in the mature animals [3]: not found to exert significant effects
enteric neurogenesis ([4]; adult mice lacking 5-HT4 receptors): not in those lacking 5-HT4 receptors
enteric neurogenesis ([4]; wild-type adult mice): stimulate enteric neurogenesis

NCCc1c[nH]c2ccc(O)cc12 [5-HT, 5-hydroxytryptamine]
development/survival of total enteric neurons [1]: enhanced the development/survival of total enteric neurons
ability to accelerate small intestinal transit [5]: impaired
